# Reference: ChEMBL document CHEMBL3046557, “Synthesis, biological evaluation, and molecular modeling studies of novel heterocyclic compounds as anti-proliferative agents” (2013)
# How the values were obtained:
# Type in all cases: functional
# Hs-578T = experiment: Cytotoxicity against human Hs 578T after 48 hrs by SRB assay
# SR = experiment: Cytotoxicity against human SR after 48 hrs by SRB assay
# ACHN = experiment: Cytotoxicity against human ACHN after 48 hrs by SRB assay
# OVCAR-4 = experiment: Cytotoxicity against human OVCAR4 after 48 hrs by SRB assay; conditions: OVCAR-4, 48 h
# A549 = experiment: Cytotoxicity against human A549 after 48 hrs by SRB assay; conditions: A549, 48 h
# M14 = experiment: Cytotoxicity against human M14 after 48 hrs by SRB assay; conditions: M14, 48 h
# CAKI-1 = experiment: Cytotoxicity against human Caki1 after 48 hrs by SRB assay; conditions: CAKI-1, 48 h
# SW-620 = experiment: Cytotoxicity against human SW620 after 48 hrs by SRB assay; conditions: SW-620, 48 h
# SK-MEL-2 = experiment: Cytotoxicity against human SK-MEL-2 after 48 hrs by SRB assay; conditions: SK-MEL-2, 48 h
# NCI-H226 = experiment: Cytotoxicity against human NCI-H226 after 48 hrs by SRB assay; conditions: NCI-H226, 48 h
# HOP-92 = experiment: Cytotoxicity against human HOP92 after 48 hrs by SRB assay; conditions: HOP-92, 48 h
# RXF 393 = experiment: Cytotoxicity against human RXF393 after 48 hrs by SRB assay; conditions: RXF 393, 48 h
# MCF7 = experiment: Cytotoxicity against human MCF7 after 48 hrs by SRB assay; conditions: MCF7, 48 h
# LOX IMVI = experiment: Cytotoxicity against human LOXIMVI after 48 hrs by SRB assay
# UO-31 = experiment: Cytotoxicity against human UO31 after 48 hrs by SRB assay; conditions: UO-31, 48 h
# COLO 205 = experiment: Cytotoxicity against human COLO205 after 48 hrs by SRB assay; conditions: COLO 205, 48 h
# Malme-3M = experiment: Cytotoxicity against human MALME-3M after 48 hrs by SRB assay
# DU-145 = experiment: Cytotoxicity against human DU145 after 48 hrs by SRB assay; conditions: DU-145, 48 h
# HCT-116 = experiment: Cytotoxicity against human HCT116 after 48 hrs by SRB assay; conditions: HCT-116, 48 h
# HT-29 = experiment: Cytotoxicity against human HT-29 after 48 hrs by SRB assay; conditions: HT-29, 48 h
# BT-549 = experiment: Cytotoxicity against human BT549 after 48 hrs by SRB assay; conditions: BT-549, 48 h
# NCI-H522 = experiment: Cytotoxicity against human NCI-H522 after 48 hrs by SRB assay; conditions: NCI-H522, 48 h
# SK-MEL-5 = experiment: Cytotoxicity against human SK-MEL-5 after 48 hrs by SRB assay; conditions: SK-MEL-5, 48 h
# SK-MEL-28 = experiment: Cytotoxicity against human SK-MEL-28 after 48 hrs by SRB assay; conditions: SK-MEL-28, 48 h
# SNB-75 = experiment: Cytotoxicity against human SNB75 after 48 hrs by SRB assay; conditions: SNB-75, 48 h
# [1] = Cytotoxicity against human NCI-ADR-RES after 48 hrs by SRB assay
# SNB-19 = experiment: Cytotoxicity against human SNB19 after 48 hrs by SRB assay; conditions: SNB-19, 48 h
# SF-295 = experiment: Cytotoxicity against human SF295 after 48 hrs by SRB assay; conditions: SF-295, 48 h
# UACC-257 = experiment: Cytotoxicity against human UACC257 after 48 hrs by SRB assay; conditions: UACC-257, 48 h
# SF-539 = experiment: Cytotoxicity against human SF539 after 48 hrs by SRB assay; conditions: SF-539, 48 h
# HOP-62 = experiment: Cytotoxicity against human HOP62 after 48 hrs by SRB assay; conditions: HOP-62, 48 h
# OVCAR-8 = experiment: Cytotoxicity against human OVCAR8 after 48 hrs by SRB assay; conditions: OVCAR-8, 48 h
# KM12 = experiment: Cytotoxicity against human KM12 after 48 hrs by SRB assay; conditions: KM12, 48 h
# PC-3 = experiment: Cytotoxicity against human PC3 after 48 hrs by SRB assay; conditions: PC-3, 48 h
# CCRF-CEM = experiment: Cytotoxicity against human CCRF-CEM after 48 hrs by SRB assay
# SF-268 = experiment: Cytotoxicity against human SF268 after 48 hrs by SRB assay; conditions: SF-268, 48 h
# NCI-H23 = experiment: Cytotoxicity against human NCI-H23 after 48 hrs by SRB assay; conditions: NCI-H23, 48 h
# MDA-MB-231 = experiment: Cytotoxicity against human MDA-MB-231 after 48 hrs by SRB assay; conditions: MDA-MB-231, 48 h
# NCI-H322M = experiment: Cytotoxicity against human NCI-H322M after 48 hrs by SRB assay
# K562 = experiment: Cytotoxicity against human K562 after 48 hrs by SRB assay; conditions: K562, 48 h
# 786-0 = experiment: Cytotoxicity against human 786-0 after 48 hrs by SRB assay; conditions: 786-0, 48 h
# EKVX = experiment: Cytotoxicity against human EKVX after 48 hrs by SRB assay
# HCC 2998 = experiment: Cytotoxicity against human HCC2998 after 48 hrs by SRB assay; conditions: HCC 2998, 48 h
# OVCAR-5 = experiment: Cytotoxicity against human OVCAR5 after 48 hrs by SRB assay; conditions: OVCAR-5, 48 h
# T47D = experiment: Cytotoxicity against human T47D after 48 hrs by SRB assay
# OVCAR-3 = experiment: Cytotoxicity against human OVCAR3 after 48 hrs by SRB assay; conditions: OVCAR-3, 48 h
# UACC-62 = experiment: Cytotoxicity against human UACC62 after 48 hrs by SRB assay; conditions: UACC-62, 48 h
# MDA-MB-435 = experiment: Cytotoxicity against human MDA-MB-435 after 48 hrs by SRB assay; conditions: MDA-MB-435, 48 h
# U-251 = experiment: Cytotoxicity against human U251 after 48 hrs by SRB assay; conditions: U-251, 48 h
# TK-10 = experiment: Cytotoxicity against human TK10 after 48 hrs by SRB assay; conditions: TK-10, 48 h
# SK-OV-3 = experiment: Cytotoxicity against human SKOV3 after 48 hrs by SRB assay; conditions: SK-OV-3, 48 h
# HCT-15 = experiment: Cytotoxicity against human HCT15 after 48 hrs by SRB assay; conditions: HCT-15, 48 h
# NCI-H460 = experiment: Cytotoxicity against human NCI-H460 after 48 hrs by SRB assay; conditions: NCI-H460, 48 h
# RPMI-8226 = experiment: Cytotoxicity against human RPMI8226 after 48 hrs by SRB assay; conditions: RPMI-8226, 48 h
# SN12C = experiment: Cytotoxicity against human SN12C after 48 hrs by SRB assay
# MOLT-4 = experiment: Cytotoxicity against human MOLT4 after 48 hrs by SRB assay; conditions: MOLT-4, 48 h
structure (smiles),measurement,setting,value
CC12CCC(C(CN3C(=O)C(=O)c4ccccc43)C1=O)C2(C)C (configuration not stated),GI50,Hs-578T,13.8 µM
same,TGI,Hs-578T,32.6 µM
same,GI50,SR,1.53 µM
same,TGI,SR,4.02 µM
same,GI50,ACHN,16.2 µM
same,TGI,ACHN,29.7 µM
same,GI50,OVCAR-4,18.8 µM
same,TGI,OVCAR-4,44.1 µM
same,GI50,A549,16.9 µM
same,TGI,A549,32.9 µM
same,GI50,M14,15.9 µM
same,TGI,M14,33.5 µM
same,GI50,CAKI-1,16.3 µM
same,TGI,CAKI-1,31.3 µM
same,GI50,SW-620,3.21 µM
same,TGI,SW-620,9.25 µM
same,GI50,SK-MEL-2,19 µM
same,TGI,SK-MEL-2,41.7 µM
same,GI50,NCI-H226,21.8 µM
same,TGI,NCI-H226,61 µM
same,GI50,HOP-92,17.9 µM
same,TGI,HOP-92,38.3 µM
same,GI50,RXF 393,5.46 µM
same,TGI,RXF 393,16.9 µM
same,GI50,MCF7,5.8 µM
same,TGI,MCF7,24.6 µM
same,GI50,LOX IMVI,10.4 µM
same,TGI,LOX IMVI,24.5 µM
same,GI50,UO-31,13.2 µM
same,TGI,UO-31,26.2 µM
same,GI50,COLO 205,12.6 µM
same,TGI,COLO 205,29.2 µM
same,GI50,Malme-3M,26.9 µM
same,TGI,Malme-3M,44.8 µM
same,GI50,DU-145,14.9 µM
same,TGI,DU-145,28.1 µM
same,GI50,HCT-116,1.95 µM
same,TGI,HCT-116,3.76 µM
same,GI50,HT-29,5.45 µM
same,TGI,HT-29,20.4 µM
same,GI50,BT-549,12.3 µM
same,TGI,BT-549,24.8 µM
same,GI50,NCI-H522,13.5 µM
same,TGI,NCI-H522,29.4 µM
same,GI50,SK-MEL-5,17.3 µM
same,TGI,SK-MEL-5,33 µM
same,GI50,SK-MEL-28,19.7 µM
same,TGI,SK-MEL-28,39.5 µM
same,GI50,SNB-75,17.1 µM
same,TGI,SNB-75,33.1 µM
same,GI50,[1],12.7 µM
same,TGI,[1],35.3 µM
same,GI50,SNB-19,13.8 µM
same,TGI,SNB-19,26.6 µM
same,GI50,SF-295,11.1 µM
same,TGI,SF-295,24.3 µM
same,GI50,UACC-257,13.9 µM
same,TGI,UACC-257,31.1 µM
same,GI50,SF-539,12.8 µM
same,TGI,SF-539,25.8 µM
same,GI50,HOP-62,15.6 µM
same,TGI,HOP-62,30.1 µM
same,GI50,OVCAR-8,2.86 µM
same,TGI,OVCAR-8,6.97 µM
same,GI50,KM12,4.12 µM
same,TGI,KM12,12.5 µM
same,GI50,PC-3,11.9 µM
same,TGI,PC-3,25.9 µM
same,GI50,CCRF-CEM,7.46 µM
same,TGI,CCRF-CEM,28.6 µM
same,GI50,SF-268,15.8 µM
same,TGI,SF-268,36 µM
same,GI50,NCI-H23,14.5 µM
same,TGI,NCI-H23,29.6 µM
same,GI50,MDA-MB-231,15.1 µM
same,TGI,MDA-MB-231,30 µM
same,GI50,NCI-H322M,23.4 µM
same,TGI,NCI-H322M,38.3 µM
same,GI50,K562,2.46 µM
same,TGI,K562,8.2 µM
same,GI50,786-0,16.8 µM
same,TGI,786-0,30.8 µM
same,GI50,EKVX,19.6 µM
same,TGI,EKVX,37.9 µM
same,GI50,HCC 2998,13.5 µM
same,TGI,HCC 2998,27.5 µM
same,GI50,OVCAR-5,14.8 µM
same,TGI,OVCAR-5,28.4 µM
same,GI50,T47D,20.6 µM
same,TGI,T47D,46.7 µM
same,GI50,OVCAR-3,15.6 µM
same,TGI,OVCAR-3,33.5 µM
same,GI50,UACC-62,16.2 µM
same,TGI,UACC-62,30.6 µM
same,GI50,MDA-MB-435,15.6 µM
same,TGI,MDA-MB-435,32.9 µM
same,GI50,U-251,15.4 µM
same,TGI,U-251,29.3 µM
same,GI50,TK-10,14.8 µM
same,TGI,TK-10,28.5 µM
same,GI50,SK-OV-3,14.8 µM
same,TGI,SK-OV-3,28.5 µM
same,GI50,HCT-15,17.1 µM
same,TGI,HCT-15,34.7 µM
same,GI50,NCI-H460,16.9 µM
same,TGI,NCI-H460,36.5 µM
same,GI50,RPMI-8226,3.22 µM
same,TGI,RPMI-8226,17.2 µM
same,GI50,SN12C,15.3 µM
same,TGI,SN12C,31.6 µM
same,GI50,MOLT-4,3.51 µM
same,TGI,MOLT-4,10.6 µM
